According to the OligoGym collection:
“And” between values parts separate entries of the source, which are not always exact repeats. Equal entries are not always repeated. HELM strings list units from the 5' end as sugar, base in round brackets, then linkage (d deoxyribose, r ribose, m 2'-O-methyl, p phosphodiester). Methylation of C is not given here. [moe] = 2'-O-(2-methoxyethyl) (MOE); [cEt] = constrained ethyl (cEt); [sp] = phosphorothioate linkage

Molecular target: HBV
Settings: ASO

| Substance | target mRNA inhibition (HepG2, 0.07 µM) | other results |
| --- | --- | --- |
| RNA1{[moe](C)[sp].[moe](A)[sp].[moe](C)[sp].d(T)[sp].d(A)[sp].d(G)[sp].d(T)[sp].d(A)[sp].d(A)[sp].d(A)[sp].d(C)[sp].d(T)[sp].[moe](G)[sp].[moe](A)[sp].[moe](G)[sp].[moe](C)}$$$$V2.0 | 14% and 4% |  |
| RNA1{[moe](C)[sp].[moe](A)[sp].[moe](G)[sp].d(A)[sp].d(G)[sp].d(G)[sp].d(T)[sp].d(G)[sp].d(A)[sp].d(A)[sp].d(G)[sp].d(C)[sp].[moe](G)[sp].[moe](A)[sp].[moe](A)[sp].[moe](G)[sp].[moe](T)}$$$$V2.0 | 63% and 50% |  |
| RNA1{[moe](C)[sp].[moe](C)[sp].[moe](A)[sp].[moe](A)[sp].[moe](T)[sp].[moe](T)[sp].d(T)[sp].d(A)[sp].d(T)[sp].d(G)[sp].d(C)[sp].d(C)[sp].d(T)[sp].d(A)[sp].d(C)[sp].[moe](A)[sp].[moe](G)}$$$$V2.0 | 13% and 20% |  |
| RNA1{[moe](C)[sp].[moe](C)[sp].[moe](A)[sp].[moe](A)[sp].d(T)[sp].d(T)[sp].d(T)[sp].d(A)[sp].d(T)[sp].d(G)[sp].d(C)[sp].d(C)[sp].d(T)[sp].[moe](A)[sp].[moe](C)[sp].[moe](A)}$$$$V2.0 | 24% and 8% |  |
| RNA1{[moe](C)[sp].[moe](C)[sp].[moe](A)[sp].d(A)[sp].d(T)[sp].d(T)[sp].d(T)[sp].d(A)[sp].d(T)[sp].d(G)[sp].d(C)[sp].d(C)[sp].[moe](T)[sp].[moe](A)[sp].[moe](C)[sp].[moe](A)[sp].[moe](G)}$$$$V2.0 | 53% and 32% |  |
| RNA1{[moe](C)[sp].[moe](C)[sp].[moe](A)[sp].d(C)[sp].d(T)[sp].d(G)[sp].d(A)[sp].d(A)[sp].d(C)[sp].d(A)[sp].d(A)[sp].d(A)[sp].[moe](T)[sp].[moe](G)[sp].[moe](G)[sp].[moe](C)}$$$$V2.0 | 69% |  |
| RNA1{[moe](C)[sp].[moe](C)[sp].[moe](G)[sp].d(C)[sp].d(A)[sp].d(G)[sp].d(T)[sp].d(A)[sp].d(T)[sp].d(G)[sp].d(G)[sp].d(A)[sp].[moe](T)[sp].[moe](C)[sp].[moe](G)[sp].[moe](G)[sp].[moe](C)}$$$$V2.0 | 86% and 73% |  |
| RNA1{[moe](C)[sp].[moe](C)[sp].d(G)[sp].d(C)[sp].d(A)[sp].d(G)[sp].d(T)[sp].d(A)[sp].d(T)[sp].d(G)[sp].d(G)[sp].[moe](A)[sp].[moe](T)[sp].[moe](C)[sp].[moe](G)[sp].[moe](G)}$$$$V2.0 | 63% and 52% |  |
| RNA1{[moe](C)[sp].[moe](G)[sp].[moe](A)[sp].[moe](A)[sp].[moe](C)[sp].d(C)[sp].d(A)[sp].d(C)[sp].d(T)[sp].d(G)[sp].d(A)[sp].d(A)[sp].d(C)[sp].d(A)[sp].[moe](A)[sp].[moe](A)[sp].[moe](T)}$$$$V2.0 | 34% and 32% |  |
| RNA1{[moe](C)[sp].[moe](G)[sp].[moe](A)[sp].[moe](A)[sp].d(C)[sp].d(C)[sp].d(A)[sp].d(C)[sp].d(T)[sp].d(G)[sp].d(A)[sp].d(A)[sp].d(C)[sp].[moe](A)[sp].[moe](A)[sp].[moe](A)}$$$$V2.0 | 44% and 32% |  |
| RNA1{[moe](C)[sp].[moe](G)[sp].[moe](C)[sp].[moe](A)[sp].d(G)[sp].d(T)[sp].d(A)[sp].d(T)[sp].d(G)[sp].d(G)[sp].d(A)[sp].d(T)[sp].d(C)[sp].[moe](G)[sp].[moe](G)[sp].[moe](C)[sp].[moe](A)}$$$$V2.0 | 81% and 67% |  |
| RNA1{[moe](C)[sp].[moe](G)[sp].[moe](C)[sp].[moe](A)[sp].d(G)[sp].d(T)[sp].d(A)[sp].d(T)[sp].d(G)[sp].d(G)[sp].d(A)[sp].d(T)[sp].d(C)[sp].[moe](G)[sp].[moe](G)[sp].[moe](C)}$$$$V2.0 | 80% and 68% |  |
| RNA1{[moe](C)[sp].[moe](G)[sp].[moe](T)[sp].[moe](G)[sp].d(C)[sp].d(A)[sp].d(G)[sp].d(A)[sp].d(G)[sp].d(G)[sp].d(T)[sp].d(G)[sp].d(A)[sp].[moe](A)[sp].[moe](G)[sp].[moe](C)}$$$$V2.0 | 46% and 44% |  |
| RNA1{[moe](C)[sp].[moe](G)[sp].[moe](T)[sp].d(G)[sp].d(C)[sp].d(A)[sp].d(G)[sp].d(A)[sp].d(G)[sp].d(G)[sp].d(T)[sp].d(G)[sp].[moe](A)[sp].[moe](A)[sp].[moe](G)[sp].[moe](C)[sp].[moe](G)}$$$$V2.0 | 70% and 64% |  |
| RNA1{[moe](C)[sp].[moe](T)[sp].[moe](A)[sp].d(G)[sp].d(T)[sp].d(A)[sp].d(A)[sp].d(A)[sp].d(C)[sp].d(T)[sp].d(G)[sp].d(A)[sp].d(G)[sp].[cEt](C)[sp].[cEt](C)[sp].[cEt](A)}$$$$V2.0 | 71% and 79% |  |
| RNA1{[moe](C)[sp].[moe](T)[sp].[moe](G)[sp].[moe](G)[sp].[moe](A)[sp].d(G)[sp].d(C)[sp].d(C)[sp].d(A)[sp].d(C)[sp].d(C)[sp].d(A)[sp].d(G)[sp].d(C)[sp].[moe](A)[sp].[moe](G)}$$$$V2.0 | 46% and 53% |  |
| RNA1{[moe](C)[sp].[moe](T)[sp].[moe](G)[sp].[moe](G)[sp].d(A)[sp].d(G)[sp].d(C)[sp].d(C)[sp].d(A)[sp].d(C)[sp].d(C)[sp].d(A)[sp].d(G)[sp].[moe](C)[sp].[moe](A)[sp].[moe](G)[sp].[moe](G)}$$$$V2.0 | 79% and 76% | target mRNA inhibition (HepG2, 0.0092593 µM): 0%; target mRNA inhibition (HepG2, 0.0277778 µM): 24%; target mRNA inhibition (HepG2, 0.0833333 µM): 65%; target mRNA inhibition (HepG2, 0.25 µM): 79% |
| RNA1{[moe](C)[sp].[moe](T)[sp].d(A)[sp].d(G)[sp].d(T)[sp].d(A)[sp].d(A)[sp].d(A)[sp].d(C)[sp].d(T)[sp].d(G)[sp].[moe](A)[sp].[moe](G)[sp].[moe](C)[sp].[moe](C)[sp].[moe](A)}$$$$V2.0 | 52% and 34% |  |
